Results taken from patent US8304443B2, “Indazole derivatives” (Asahi Kasei Pharma Corporation, priority 2008, dated 2012).
Values after ≈ are worked out from the molar mass of the structure shown.

Legend:
[1] = biological target: T1, human β2 adrenergic receptor (Homo sapiens, UniProt P07550); test: Test example 3-B: human β2 adrenergic receptor agonist activity; format: cell-based; conditions: read-out: β2 receptor I.A.
T1 construct: expressed in transfected cells; host or cells: CHO (Chinese hamster ovary) cells, pcDNA3
T1 sequence (P07550 whole entry): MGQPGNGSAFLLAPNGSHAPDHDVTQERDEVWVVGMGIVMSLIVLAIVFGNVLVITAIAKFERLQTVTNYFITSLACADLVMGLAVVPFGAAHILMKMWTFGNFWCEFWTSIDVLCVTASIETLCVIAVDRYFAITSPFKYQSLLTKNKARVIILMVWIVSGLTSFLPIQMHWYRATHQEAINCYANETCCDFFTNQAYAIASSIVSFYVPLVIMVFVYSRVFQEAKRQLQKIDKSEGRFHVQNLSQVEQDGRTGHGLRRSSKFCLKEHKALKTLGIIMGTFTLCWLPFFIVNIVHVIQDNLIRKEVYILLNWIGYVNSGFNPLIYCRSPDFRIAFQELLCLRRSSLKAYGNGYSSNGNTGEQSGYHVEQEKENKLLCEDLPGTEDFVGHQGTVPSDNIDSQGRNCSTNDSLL

[2] = Test example 13: stability test in pure water; format: physicochemical; conditions: for stability in pure water (finding): up to 48 hours
Procedure: (§1) Test compound is prepared to saturation state in pure water. The resulting solution is shaken at room temperature for 1 hour. To a filter tube, the entire solution obtained after the shaking is transferred and is subjected to centrifugal filtration at room temperature. The filtrate is analyzed by HPLC right after the filtration, 24 hours, and 48 hours after the filtration. Then, by using a calibration curve, stability of the test compound is obtained from the peak area value.
(§2) Standard solution is prepared by precisely weighing each test compound and fully dissolving it in pure water. Calibration curve is established by having the concentration of the standard solution as a horizontal axis and the HPLC area value at the corresponding concentration as a vertical axis.
(§3) As a separation column, YMC-Pack C18 (4.6 mm×150 mm, manufactured by YMC) is used. Detection is made at UV-254 nm and the temperature inside the column is 40° C. Condition for elution is as follows; with flow rate of 1 ml/minute, solution A as a solvent=water [comprising 0.1% (v/v) acetic acid] and solution B=acetonitrile are used, and from minute 0 to minute 20, 5 to 98% (v/v) linear gradient of solution B is applied, followed by elution with 98% of solution B until minute 25 and elution with 5% of solution B from minute 25.01 to minute 35.

[3] = system: rat under pentobarbital anesthesia; test: Test example 9: effect on blood pressure and heart rate of a rat under pentobarbital anesthesia; format: in vivo; conditions: male SD rat, 3 mg/kg intravenous bolus; greatest change of mean blood pressure relative to before administration; mean ± standard deviation
Procedure: After measuring blood pressure and heart rate of a rat under pentobarbital anesthesia, an effect of intravenous bolus administration of a test compound on blood pressure and heart rate can be determined. To a male SD rat (Japan SLC Inc.), sodium pentobarbital (Tokyo Chemical Industry Co., Ltd.) is intraperitoneally administered for induction of anesthesia (50 mg/kg). As maintenance anesthetics, sodium pentobarbital is subcutaneously administered (25 mg/kg). Left femoral vein is exposed and stripped, and then a polyethylene tube SP10 (connected to a three-way stopcock via ¼ vein needle) which has been filled with physiological saline is inserted and left in the vein.
Left medial femoral region is cut to expose and strip the femoral artery, and then a polyethylene tube (SP31, connected to a three-way stopcock via 22 G injection needle by TERUMO Corporation) which has been filled with heparin physiological saline is inserted and connected to a pressure transducer. Blood pressure is measured from the pressure transducer by using a modified pressure amplifier (AP-641 G, Nihon Kohden Corporation). Heart rate is measured by using the Heart rate Counter (AT-601 g, Nihon Kohden Corporation) while having the pulse wave of the blood pressure as a trigger. The blood pressure, mean blood pressure and heart rate are transmitted to the data recorder for recordation. In addition, the mean blood pressure is recorded using a modified pressure amplifier (AP-641 G) according to the equation of {diastolic blood pressure+(systolic blood pressure−diastolic blood pressure)/3}.
Blood pressure and heart rate measurement is started, and after confirming that each value remains almost constant, the test compound (3 mg/kg) is administered to the left femoral vein for 30 seconds. Specifically, the test compound with 3 mg/mL concentration is bolus administered at the administration dose of 1 mL/kg. Relative value (%) at each time point compared to the mean blood pressure and the heart rate before the administration is obtained for each individual. […]

[4] = biological target: T2, human β1 adrenergic receptor (Homo sapiens, UniProt P08588); test: Test example 2-B: human β1 adrenergic receptor agonist activity; format: cell-based; conditions: 0.5 h; read-out: β1 receptor I.A.
T2 construct: expressed in transfected cells; host or cells: CHO (Chinese hamster ovary) cells, pcDNA3
T2 sequence (P08588 whole entry): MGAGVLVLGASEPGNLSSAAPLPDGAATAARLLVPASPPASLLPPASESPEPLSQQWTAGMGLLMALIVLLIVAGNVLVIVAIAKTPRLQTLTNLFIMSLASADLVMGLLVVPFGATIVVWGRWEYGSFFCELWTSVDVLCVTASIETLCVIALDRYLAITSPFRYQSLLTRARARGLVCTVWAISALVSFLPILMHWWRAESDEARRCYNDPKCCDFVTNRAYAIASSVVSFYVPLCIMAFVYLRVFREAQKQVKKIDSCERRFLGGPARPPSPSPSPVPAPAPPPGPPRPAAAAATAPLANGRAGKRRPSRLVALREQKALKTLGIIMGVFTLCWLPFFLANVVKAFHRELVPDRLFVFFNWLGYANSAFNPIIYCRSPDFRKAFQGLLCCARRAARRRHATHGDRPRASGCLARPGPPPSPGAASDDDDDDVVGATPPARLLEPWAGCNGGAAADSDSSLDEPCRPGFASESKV

[5] = Test example 10: saturation solubility in pure water; format: physicochemical; conditions: thermodynamic from solid, room temperature, shaken 1 hour
Procedure: as §1, with “HPLC,” for “HPLC right after the filtration, 24 hours,”, “and” for “and 48 hours after the filtration. Then,”, “saturation solubility” for “stability”
as §2, §3

[6] = Test example 14: stability in phosphate buffer solution having pH 6.8; format: physicochemical; conditions: for HPLC area percentage at 24 hours after the filtration / HPLC area percentage at 48 hours after the filtration / HPLC area percentage right after the filtration: phosphate buffer solution pH 6.8; for stability in phosphate buffer solution pH 6.8 (finding): up to 48 hours
Procedure: as §1
Except that pure water is replaced with phosphate buffer solution having pH 6.8, the test is carried out in the same method as Test example 13 to obtain the stability of the test compound.

[7] = Test example 12: solubility test in physiological saline; format: physicochemical; conditions: saline or isotonic, thermodynamic from solid, 37° C., prepared at 1000 μg/mL
Procedure: 500 μg of the test compound is precisely weighed, and then added with hydrochloric acid buffer solution having pH 1.2 until the concentration of 1000 μg/mL is obtained. The […] is shaken at 37° C. for 1 hour. To a filter tube, the entire solution obtained after the shaking is transferred and is subjected to centrifugal filtration at room temperature. The filtrate is analyzed by HPLC, and by using a calibration curve, saturation solubility of the test compound is obtained from the peak area value.
Except that the hydrochloric acid buffer solution having pH 1.2 is replaced with physiological saline, the test is carried out in the same method as Test example 11 to obtain the solubility of the test compound.

[8] = system: urinary bladder smooth muscle isolated from common marmoset; test: Test example 7: relaxant activity on urinary bladder smooth muscle isolated from common marmoset; conditions: strips contracted by 40 mmol/L KCl, papaverine 10^−4 mol/L relaxation = 100%
Procedure: Specifically, a common marmoset (CLEA Japan, Inc.) is bled to exsanguinated death, and then the urinary bladder is taken out of the marmoset via laparotomy. […] A resting tension of 1 g is applied to the strips, which is then equilibrated for more than 30 minutes. […] The final concentration is 10^−9, 10^−8, 10^−7, 10^−8, 10^−5 and 10^−4 mol/L. Upon the completion of the relaxation response to the test compound at the highest concentration, papaverine with final concentration of 10^−4 mol/L is added and the maximum relaxation response is obtained for each strip. This relaxation response is taken as 100%, and the relaxation ratio (%) is obtained for the test compound at the concentrations of 10^−5 and 10^−4 mol/L.

| Compound | Emax [1] [%] | HPLC area percentage at 24 hours after the filtration [2] [%] | HPLC area percentage at 48 hours after the filtration [2] [%] | HPLC area percentage right after the filtration [2] [%] | stability in pure water (finding) [2] | increase in MBP (%) [3] [%] | Emax [4] [%] | solubility at 1 h [5] [mg/mL] | HPLC area percentage at 24 hours after the filtration [6] [%] | HPLC area percentage at 48 hours after the filtration [6] [%] | HPLC area percentage right after the filtration [6] [%] | stability in phosphate buffer solution pH 6.8 (finding) [6] | solubility at 1 h [7] [µg/mL] | relaxant activity (%) 10^−4 M [8] [%] | relaxant activity (%) 10^−5 M [8] [%] |
| --- | --- | --- | --- | --- | --- | --- | --- | --- | --- | --- | --- | --- | --- | --- | --- |
| CS(=O)(=O)Nc1cccc([C@@H](O)CNCCOc2ccc3c(C4CC4)n[nH]c3c2)c1 [Example 1, (R)—N-(3-(1-Hydroxy-2-(2-(3-cyclopropylindazol-6-yloxy)ethylamino)ethyl)phenyl)methanesulfonamide] | 6.3 | 95.6 | 95.6 | 95.7 | stable | 2.7 ± 0.5 | 10 | 55 (≈ 128 mM) | 95.5 | 95.5 | 95.7 | stable | 999 (≈ 2.32 mM) | 55.7 | 38.6 |
| CS(=O)(=O)Nc1cccc([C@@H](O)CNCCOc2ccc3c(C4CCC4)n[nH]c3c2)c1 [Example 2, (R)—N-(3-(1-Hydroxy-2-(2-(3-cyclobutylindazol-6-yloxy)ethylamino)ethyl)phenyl)methanesulfonamide] | 3.8 | 95.2 | 95.0 | 95.2 | stable | 4.0 ± 2.6 | 9.9 | 53 (≈ 119 mM) | 93.3 | 94.5 | 95.1 | stable | 999 (≈ 2.25 mM) | 65.6 | 50.8 |
